≈ marks a conversion by molar mass, not a printed value. Read-outs that look alike come from different tables or passages of the source.
Columns and labels:
[1] = system: guanine xpt riboswitch from Streptococcus pyogenes (STPY-xpt); assay: Relative binding by displacement of 2-aminopurine from the STPY-xpt aptamer
Protocol: Shown in FIG. 4A is the structure of the guanine ligand and the compounds: 4-hydroxy-2,5,6-triaminopyrimidine shown as 2,5,6-triaminopyrimidine-4-one (compound 1.01), 2,4-diamino-6-hydroxypyrimidine shown as 2,6-diaminopyrimidine-4-one (compound 1.13) and 5,6-diamino-uracil (2AU) as well as their predicted hydrogen bonds (arrows). […] The experiment was performed as in for example Mulhbacher and Lafontaine, 2007. […] Briefly, STPY-xpt aptamers were incubated in the presence of the guanine-like ligand 2-aminopurine alone (Neg. control) or in the presence of 1 or 10 μM of the above-listed compounds. The relative binding affinity was obtained from the ability of a ligand to displace the 2-aminopurine from the guanine riboswitch STPY-xpt aptamer.

[2] = system: methicillin resistant S. aureus; assay: Antibiogram with 6-thioguanine; format: cell-based; details: 0.5 or 1 mg/mL
[3] = system: E. coli ATCC 35695; assay: Antibiogram with 6-thioguanine; format: cell-based; details: 0.5 or 1 mg/mL; E. coli ATCC 35695 (lacks guaA riboswitch)
[4] = system: E. coli ATCC35695; assay: MIC, microdilution method in 96-well microplates; details: for MIC: Escherichia coli, ATCC35695, 24 h, read-out: Minimum inhibitory concentration (MIC); for Antimicrobial activity on E. coli: E. coli strain ATCC 35695
[5] = system: S. aureus strain ATCC 29213; assay: MIC / growth inhibition, microdilution method; format: cell-based; details: for MIC: Staphylococcus aureus, ATCC29213, 24 h; for S. aureus growth inhibition: Yes/No
[6] = system: S. aureus strain ATCC 29213; format: cell-based; details: sub-inhibitory concentrations, MIC determined every 5 passages up to 30
[7] = Tolerance of intramammary injection in cows; format: in vivo, Holstein cows; details: intramammary 100 mg, 250 mg or 500 mg per quarter, 4 cows, 48 h
[8] = system: S. aureus; assay: S. aureus infection of the mouse mammary glands, CFU count; format: in vivo; details: intra-mammary injection of 10 times the effective dose; treated 4 h after infection, glands excised 6 h later
Protocol: The efficacy of compound 1.01 in treating a S. aureus infection of the mouse mammary glands was examined. Briefly, mouse mammary glands were infected with 100 CFU of S. aureus. Four hours after the inoculation, the glands were treated with vehicle (PBS), 10, 50 or 100 μg/gland of compound 1.01. Six hours later, glands were excised, homogenized and plated on Mueller-Hinton agar. CFU were then counted after 18 hours at 35° C. Each dot represents the CFU of each individual gland (n=6-12) and the median value for each group is indicated by the bar. Statistical differences (P<0.05) between CFU recovered from treated and untreated animals are shown by asterisks (non-parametric Kruskal-Wallis ANOVA with Dunn's post test).

[9] = system: Bacillus halodurans, S. haemolyticus, S. aureus ATCC29213, SA228a, MRSA COL, Clostridium botulinum, Clostridium difficile Cd6 and 630, S. epidermidis; format: cell-based
[10] = system: S. aureus Chronic #3; assay: Bactericidal activity, fold reduction of CFU/mL; format: cell-based; details: 600 μg/mL, 4 hours
Protocol: (§1) The bactericidal activity of compound 1.01 on various strains of S. aureus (including 3 chronic strains and 3 prototypical strains) was determined. These strains include prototypical S. aureus strains ATCC 29213, Newbould 305, SHY97-3906 as well as S. aureus strains isolated from persistent and chronic bovine mastitis cases (isolates #3, #557, #1290). C. difficile strain Cd6 was also examined. […] The results are summarized in Table 5 below and are expressed as the mean fold reduction of CFU/mL (i.e., the number of CFU/mL of control bacteria divided by the number of CFU/mL of treated bacteria).

[11] = system: S. aureus Chronic #557; assay: Bactericidal activity, fold reduction of CFU/mL; format: cell-based; details: 600 μg/mL, 4 hours
Protocol: as §1

[12] = system: S. aureus Chronic #1290; assay: Bactericidal activity, fold reduction of CFU/mL; format: cell-based; details: 600 μg/mL, 4 hours
Protocol: as §1

[13] = system: S. aureus SHY97-3906; assay: Bactericidal activity, fold reduction of CFU/mL; format: cell-based; details: 600 μg/mL, 4 hours
Protocol: as §1

[14] = system: S. aureus ATCC 29213; assay: Bactericidal activity, fold reduction of CFU/mL; format: cell-based; details: 600 μg/mL, 4 hours
Protocol: as §1

[15] = system: C. difficile (Cd6); assay: Bactericidal activity, fold reduction of CFU/mL; format: cell-based; details: 600 μg/mL, 4 hours
Protocol: as §1

[16] = system: S. aureus Newbould 305; assay: Bactericidal activity, fold reduction of CFU/mL; format: cell-based; details: 600 μg/mL, 4 hours
Protocol: as §1

[17] = system: S. aureus strain ATCC 29213; assay: Growth as a function of time (CFU counts); format: cell-based; details: compared with ciprofloxacin
[18] = system: E. coli AcrAB—/—; assay: microbe, parasite or virus in culture; details: Escherichia coli, 24 h, read-out: Minimum inhibitory concentration (MIC)
[19] = system: S. aureus genes; assay: Transcriptomic microarray analysis of more than 500 genes; format: cell-based; details: 30 min
[20] = system: E. coli Imp; assay: microbe, parasite or virus in culture; details: Escherichia coli, 24 h, read-out: Minimum inhibitory concentration (MIC)
[21] = system: Bacillus subtilis, Enterococcus feacium, Listeria monocytogenes, Streptococcus dysgalactiae, Streptococus pyogenes, Streptococcus uberis; format: cell-based
[22] = system: guanine riboswitch; assay: Guanine riboswitch binding (Table 6); details: Yes/No
[23] = compound at 10 μM, compared with 1 μM guanine
[24] = S. aureus ATCC 29213, 24 h, 37° C., read-out: MIC
[25] = S. aureus ATCC 29213, 24 h, 37° C., read-out: S. aureus growth inhibition, MIC

With `Nc1[nH]c(=O)[nH]c(=O)c1N` the Relative binding [1, 23] was 0.05.
With `Nc1nc2[nH]cnc2c(=S)[nH]1` [6-thioguanine] the Relative binding [1, 23] was 0.14, the “Antibiotic activity in antibiogram” value [2] was “non-specific antibiotic activity” and the “Antibiotic activity in antibiogram” value [3] was “non-specific antibiotic activity”.
In the case of `Nc1nc(N)c(N)c(O)n1` [Compound 1.01, 4-hydroxy-2,5,6-triaminopyrimidine], the MIC [4] is reported as greater than 5000 µg/mL, the MIC [5, 24] is reported as roughly 600 µg/mL (≈ 4250 µM) and the “Passages until resistance is selected” value [6] is reported as “at least 30 passages”. The “Body temperature, milk appearance, milk somatic cell counts, milk quarter production” value [7] was “no change in body temperature, milk appearance, milk somatic cell counts or individual milk quarter production”, the “Reduction of bacterial counts” value [8] was greater than 3 log10 and the “Sensitivity of strains in antibiogram” value [9] was “sensitive”. For the same compound, the “Fold reduction of CFU/mL (control/treated), Mean (log10)” value [10] was 5.11 log10, the “Fold reduction of CFU/mL (control/treated), Mean (log10)” value [11] was 4.38 log10 and the “Fold reduction of CFU/mL (control/treated), Mean (log10)” value [12] was 5.42 log10. For the same compound, the “Fold reduction of CFU/mL (control/treated), Mean (log10)” value [13] was 6.35 log10, the “Fold reduction of CFU/mL (control/treated), Mean (log10)” value [14] was 6.67 log10 and the “Fold reduction of CFU/mL (control/treated), Mean (log10)” value [15] was 5.42 log10. For the same compound, the “Fold reduction of CFU/mL (control/treated), Mean (log10)” value [16] was 4.86 log10, the “Rapidity of anti-bacterial effect” value [17] was “as rapid as that of the well-known antibiotic ciprofloxacin” and the Relative binding [1, 23] was 0.26. It also gave an MIC [18] greater than 5000 µg/mL, a Genes repressed ([19]; 600 μg/mL compound alone) greater than 75% and a Genes repressed ([19]; 600 μg/mL compound supplemented with 100 μM GMP) of 20%. The MIC [20] was greater than 5000 µg/mL, the “Sensitivity of strains in antibiogram” value [21] was “insensitive” and the “Cytotoxicity upon histological observations of mammary tissues” value (100 μg/gland, compared to PBS-treated glands) was “no apparent cytotoxicity”. The “Signs of toxicity in mice (posture, breathing, piloerection, movement)” value (mouse, in vivo) was “without causing any significant signs of toxicity”.
Compound `Nc1cc(=O)[nH]c(N)n1` [Compound 1.13, 2,4-diamino-6-hydroxypyrimidine] has an MIC [4] greater than 5000 µg/mL, an MIC [5, 24] of roughly 5000 µg/mL (≈ 39600 µM) and a Relative binding [1, 23] of 0.39. For the same compound, the MIC [18] was greater than 5000 µg/mL and the MIC [20] was greater than 5000 µg/mL.
With `Nc1nc(S)[nH]c(=O)c1N` [Compound 1.16, 4,5-diamino-6-hydroxy-2-mercaptopyrimidine] the “Antimicrobial activity on E. coli” value [4] was “no antimicrobial activity”, the Guanine riboswitch binding [22] was “Yes” and the MIC [5, 25] was 128 µg/mL (≈ 809 µM). The “S. aureus growth inhibition” value [5] was “Yes”.
In the case of `Nc1nc2ocnc2c(=O)[nH]1` [Compound 2.02, 5-Amino-6H-oxazolo[5,4-d]pyrimidin-7-one], the “Antimicrobial activity on E. coli” value [4] is reported as “no antimicrobial activity”, the Guanine riboswitch binding [22] is reported as “able to bind guanine riboswitch and Yes” and the “S. aureus growth inhibition, MIC” value ([5]; S. aureus ATCC 29213, 24 h, 37° C.) is reported as 1 mg/mL. The MIC [5, 25] was 1020 µg/mL (≈ 6730 µM) and the “S. aureus growth inhibition” value [5] was “Yes”.
In the case of `Nc1nc2nc(Cl)sc2c(=O)[nH]1` [Compound 2.17, 5-amino-2-chloro-2,3-dihydrothiazolo[4,5]pyrimidine-7-(6H)-one], the “Antimicrobial activity on E. coli” value [4] is reported as “no antimicrobial activity”, the Guanine riboswitch binding [22] is reported as “Yes” and the MIC [5, 25] is reported as 128 µg/mL (≈ 632 µM). For the same compound, the “S. aureus growth inhibition” value [5] was “Yes”.
`CC[C@H]1OC(=O)[C@H](C)[C@@H](O[C@H]2C[C@@](C)(OC)[C@@H](O)[C@H](C)O2)[C@H](C)[C@@H](O[C@@H]2O[C@H](C)C[C@H](N(C)C)[C@H]2O)[C@](C)(O)C[C@@H](C)C(=O)[C@H](C)[C@@H](O)[C@]1(C)O` [Erythromicin, reference compound] showed an MIC [4] of 128 µg/mL (≈ 174 µM), an MIC [5, 24] of 0.5 µg/mL (≈ 0.681 µM) and an MIC [18] of 1 to 4 µg/mL (≈ 1.36 to 5.45 µM). The MIC [20] was 0.125 to 1 µg/mL (≈ 0.17 to 1.36 µM).
For `CN[C@H](CC(C)C)C(=O)N[C@H]1C(=O)N[C@@H](CC(N)=O)C(=O)N[C@H]2C(=O)N[C@H]3C(=O)N[C@H](C(=O)N[C@H](C(=O)O)c4cc(O)cc(O)c4-c4cc3ccc4O)[C@H](O)c3ccc(c(Cl)c3)Oc3cc2cc(c3O[C@@H]2O[C@H](CO)[C@@H](O)[C@H](O)[C@H]2O[C@H]2C[C@](C)(N)[C@H](O)[C@H](C)O2)Oc2ccc(cc2Cl)[C@H]1O` [Vancomycin, reference compound], the MIC [4] was greater than 128 µg/mL, the MIC [5] was 1 µg/mL (≈ 0.69 µM) and the MIC [18] was greater than 128 µg/mL. The MIC [20] was 0.25 µg/mL (≈ 0.173 µM).
Work on `Nc1ncnc2[nH]cnc12` [adenine] yielded a Relative binding [1, 23] of 0.05.
Compound `O=C(O)c1cn(C2CC2)c2cc(N3CCNCC3)c(F)cc2c1=O` [ciprofloxacin, reference compound] has an MIC [5, 24] of 0.5 µg/mL (≈ 1.51 µM).
Work on `Nc1nc2[nH]cnc2c(=O)[nH]1` [guanine] yielded a Relative binding ([1]; compound at 1 μM) of 1.
Work on `O=c1[nH]cnc2[nH]cnc12` [hypoxanthine] yielded a Relative binding [1, 23] of 0.50.
`O=c1[nH]c(=O)c2nc[nH]c2[nH]1` [xanthine] showed a Relative binding [1, 23] of 0.08.
